This is an account of results in ChEMBL document CHEMBL1146989 (Bioorg Med Chem Lett, 2006).

Structures are written as SMILES.

In general, IC50 refers to the concentration needed to halve the response being measured. A high value points to weaker potency.

For this assay, the target named is PI3-kinase p110-alpha/p85-alpha (Homo sapiens, UniProt P42336). Description: Inhibition of PI3 kinase p110alpha/p85-alpha complex. The class given is protein-complex assay.
PI3-kinase p110-alpha/p85-alpha, sequence (P27986 whole entry): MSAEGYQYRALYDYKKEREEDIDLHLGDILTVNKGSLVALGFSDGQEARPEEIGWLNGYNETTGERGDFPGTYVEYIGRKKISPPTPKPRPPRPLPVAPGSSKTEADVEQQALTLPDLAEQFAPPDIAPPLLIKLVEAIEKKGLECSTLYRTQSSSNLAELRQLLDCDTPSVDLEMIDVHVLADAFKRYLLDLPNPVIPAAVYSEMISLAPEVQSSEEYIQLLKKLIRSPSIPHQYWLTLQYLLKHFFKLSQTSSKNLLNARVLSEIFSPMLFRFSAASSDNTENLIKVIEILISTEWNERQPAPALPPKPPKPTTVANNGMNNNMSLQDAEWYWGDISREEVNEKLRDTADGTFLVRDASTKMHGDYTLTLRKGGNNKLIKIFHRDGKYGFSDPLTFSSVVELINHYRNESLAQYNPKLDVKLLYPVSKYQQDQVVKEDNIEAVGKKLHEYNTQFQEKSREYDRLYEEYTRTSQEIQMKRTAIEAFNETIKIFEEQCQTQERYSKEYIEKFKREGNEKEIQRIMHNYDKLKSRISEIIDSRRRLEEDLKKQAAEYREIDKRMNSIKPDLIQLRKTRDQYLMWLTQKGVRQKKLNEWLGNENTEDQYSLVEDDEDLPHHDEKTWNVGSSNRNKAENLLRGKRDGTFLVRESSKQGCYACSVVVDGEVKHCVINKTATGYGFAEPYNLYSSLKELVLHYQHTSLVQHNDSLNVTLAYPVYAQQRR
PI3-kinase p110-alpha/p85-alpha, sequence (P42336 whole entry): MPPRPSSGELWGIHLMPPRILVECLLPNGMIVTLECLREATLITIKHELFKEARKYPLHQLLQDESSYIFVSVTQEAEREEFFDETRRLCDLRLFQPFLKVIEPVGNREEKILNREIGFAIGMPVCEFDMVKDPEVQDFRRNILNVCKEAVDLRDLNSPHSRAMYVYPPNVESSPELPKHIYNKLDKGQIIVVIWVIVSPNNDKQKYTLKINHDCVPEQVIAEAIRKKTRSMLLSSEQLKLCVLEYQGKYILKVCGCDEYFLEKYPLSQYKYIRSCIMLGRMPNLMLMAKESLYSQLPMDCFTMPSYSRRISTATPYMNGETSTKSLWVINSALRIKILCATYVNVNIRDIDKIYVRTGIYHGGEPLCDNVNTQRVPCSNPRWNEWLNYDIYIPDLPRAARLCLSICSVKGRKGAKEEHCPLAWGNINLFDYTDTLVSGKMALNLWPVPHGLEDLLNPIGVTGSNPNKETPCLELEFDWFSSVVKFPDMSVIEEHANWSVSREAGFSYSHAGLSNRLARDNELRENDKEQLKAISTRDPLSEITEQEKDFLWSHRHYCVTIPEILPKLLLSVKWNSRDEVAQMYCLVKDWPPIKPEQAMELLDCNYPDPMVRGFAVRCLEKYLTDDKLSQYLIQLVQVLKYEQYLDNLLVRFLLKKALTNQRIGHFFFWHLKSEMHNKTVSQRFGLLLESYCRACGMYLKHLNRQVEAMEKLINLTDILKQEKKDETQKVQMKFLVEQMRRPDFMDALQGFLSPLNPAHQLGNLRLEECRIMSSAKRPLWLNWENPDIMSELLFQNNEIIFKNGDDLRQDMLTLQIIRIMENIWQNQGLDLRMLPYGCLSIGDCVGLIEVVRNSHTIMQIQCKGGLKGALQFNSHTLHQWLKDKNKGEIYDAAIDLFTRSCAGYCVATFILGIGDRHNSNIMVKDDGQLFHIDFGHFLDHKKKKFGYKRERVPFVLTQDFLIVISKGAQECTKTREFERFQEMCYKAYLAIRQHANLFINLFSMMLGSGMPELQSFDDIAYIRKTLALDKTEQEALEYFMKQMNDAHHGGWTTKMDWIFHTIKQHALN
Regarding `CN(CC(=O)O[C@@H]1CC(=O)c2coc3c2[C@@]1(C)c1ccc2c(c1C3=O)CCC2=O)c1ccc([N+](=O)[O-])c2nonc12`, the IC50 amounted to 9.6 nM. That is a single-digit nanomolar value. As to `COC[C@H]1OC(=O)c2coc3c2[C@@]1(C)C1=C(C3=O)C2CC[C@H](OC(=O)Cc3cc(=O)oc4cc(N(C)C)ccc34)[C@@]2(C)C[C@H]1OC(C)=O` (stereo partly specified), it took 695 nM to reach half-maximal inhibition (IC50). The same measure for `COC[C@H]1OC(=O)c2coc3c2[C@@]1(C)C1=C(C3=O)C2CC[C@H](OC(=O)CN(C)c3ccc([N+](=O)[O-])c4nonc34)[C@@]2(C)C[C@H]1OC(C)=O` (stereo partly specified): 225 nM; for `COC[C@H]1OC(=O)c2coc3c2[C@@]1(C)C1=C(C3=O)C2CCC(=O)[C@@]2(C)C[C@H]1OC(=O)CN(C)c1ccc([N+](=O)[O-])c2nonc12` (stereo partly specified): 0.7 nM. Regarding `CN(C)c1ccc2c(CC(=O)O[C@@H]3CC(=O)c4coc5c4[C@@]3(C)c3ccc4c(c3C5=O)CCC4=O)cc(=O)oc2c1`, inhibition was half-maximal at 1.9 nM (IC50).

The molecule `COC[C@H]1OC(=O)c2coc3c2[C@@]1(C)C1=C(C3=O)C2CCC(=O)[C@@]2(C)C[C@H]1OC(=O)Cc1cc(=O)oc2cc(N(C)C)ccc12` (stereo partly specified) came in with an IC50 of 10.1 nM.
